Publication PMC8073686, “Characterization of Subtype Selective Cannabinoid CB2 Receptor Agonists as Potential Anti-Inflammatory Agents” (Pharmaceuticals, 2021)

System: IL-2 mRNA in Jurkat cells
Test: PHA/PMA-induced IL-2 mRNA in Jurkat cells (RT-PCR)
Format: cell-based, human
Experimental: Activation of CB2 is known to have anti-inflammatory effects. There are some studies reporting that CB2 agonists decrease cytokine production in immune cells. We also reported that the cannabinoid receptor agonist CP55,940 and ABK5 inhibit cytokine production in the human T cell lines Jurkat and MOLT-4 [24]. Since ABK5-1 and 5-2 were confirmed to be CB2-subtype selective agonists, we were interested to determine whether these compounds also have anti-inflammatory effects. Note, although ABK5-6 had marginally better binding affinity to CB2, it bound to CB1 […] (i.e., micromolar range). Therefore ABK5-6 was not selected for further evaluations. We first tested the change of IL-2 and TNF-α mRNA levels in Jurkat cells. […] To test if these mRNA changes are reflected in the protein levels of cytokines, the IL-2 and TNF-α concentration in the cell culture medium were measured by ELISA. […] Unlike ABK5-1, at 3 h of treatment, the lowest concentration of ABK5-2 used caused the IL-2 mRNA decrease. […] On the other hand, TNF-α mRNA decreased by 45% at 10 μM ABK5-2 after 3 h of treatment (Figure 4E, black columns). […] These mRNA level changes were similar to that of ABK5-1, except ABK5-2 caused a stronger inhibitory effect on expression of TNF-α mRNA. […] Consistent with the mRNA levels, the inhibitory effect of ABK5-2 on TNF-α production was stronger than that of ABK5-1.
Figure 4 Effect of ABK5-1 and ABK5-2 on phytohemagglutinin (PHA)/phorbol 12-myristate 13-acetate (PMA)-induced cytokine production in T cells. Jurkat cells were pretreated with DMSO (<0.1%; indicated as 0 μM) or various concentrations of ABK5-1 (A–D) or ABK5-2 (E–H) and stimulated with PHA and PMA. IL-2 and TNF-α mRNA levels were determined by real-time PCR (RT-PCR) after ABK5-1 treatment and (A) 3 h and (B) 24 h of PHA/PMA (phytohemagglutinin/phorbol 12-myristate 13-acetate) stimulation. Protein levels of (C) IL-2 and (D) TNF-α were also examined after 24 h of stimulation. IL-2 and TNF-α mRNA were also examined after ABK5-2 treatment and (E) 3 h and (F) 24 h of stimulation, and protein levels of (G) IL-2 and (H) TNF-α were measured after 24 h stimulation. Results are indicated as the mean ± S.D. of three independent assays performed in triplicate for each concentration. One-way ANOVA and Dunnett’s post-hoc test were used and * p < 0.05, ** p < 0.01, *** p < 0.005, **** p < 0.0001 (versus reference).
For cytokine analysis, 0.75 × 10^6 Jurkat cells per well were seeded in 12-well cell culture plates and treated with compounds at a concentration between 0.1 to 10 μM and incubated for 30 min at 37 °C. Then cells were stimulated for cytokine production with PHA (1 μg/mL) and PMA (12.5 ng/mL), for 3 and 24 h. After stimulation, cells were harvested for RNA analysis and the culture supernatant was used for measurement of IL-2 and TNF-α concentrations by human IL-2 and TNF-α ELISA kits (Thermo Fisher Scientific; Waltham, MA, USA) according to the manufacturer instructions.
Jurkat cells were lysed and total RNA was extracted using TRIzol Reagent (Life Technologies, Carlsbad, CA, USA) followed by reverse transcription by a High-Capacity cDNA Reverse Transcription kit (Life Technologies, Carlsbad, CA, USA) according to the manufacturer’s instructions. Quantitative real-time PCR was performed using an Applied Biosystems 7500 Fast Real-Time PCR system in a 10 μL reaction volume containing 2 μL diluted cDNA and 0.5 μM each of forward and reverse primers, and PowerUp SYBR Green Master Mix (Life Technologies, Carlsbad, CA, USA). Primers used in the reaction were as follows: human 36B4 forward, 5′-[…]-3′, and human 36B4 reverse, 5′-[…]-3′, and human IL-2 forward, 5′-[…]-3′, and human IL-2 reverse, 5′-[…]-3′, and human TNF-α forward, 5′-[…]′, human TNF-α reverse, 5′-[…]-3′. The PCR cycles are as follows: 50 °C for 2 min, 95 °C for 2 min, 40 cycles of 95 °C for 3 sec and 60 °C for 30 s. […]

[1] = 0.1 μM, 3 h PHA/PMA stimulation

| Compound | decrease of IL-2 mRNA [1] | decrease of IL-2 mRNA (1 μM, 3 h PHA/PMA stimulation) | decrease of IL-2 mRNA (1 μM, 24 h) | decrease of IL-2 mRNA (10 μM, 3 h PHA/PMA stimulation) [%] | decrease of IL-2 mRNA (10 μM, 24 h) |
| --- | --- | --- | --- | --- | --- |
| CCOC(=O)c1ccccc1NC(=O)CN(c1ccc(C)cc1C)S(=O)(=O)c1ccccc1 [ABK5-1] | did not show a significant decrease | about 17% | about 14% | ~46 | ~67% |
| CCOC(=O)c1ccccc1NC(=O)CN(c1c(C)cccc1C)S(=O)(=O)c1ccccc1 [ABK5-2] | about 20% | ~15% | – | ~46 | about 65% |
